# Results from patent US20220185802A1, “BENZOXAZINE MONOMERS AND POLYMERIC COATINGS” (LUXEMBOURG INSTITUTE OF SCIENCE AND TECHNOLOGY (LIST), priority 2019, published 2022).
# Experiments:
# NF-κB activation = assay: Inflammation inhibitory activity, NF-κB-inducible SEAP reporter in THP-1 cells with TNFα as inducer; type: cell-based, human; settings: samples coated with polymer formed from the monomer in combination with P-e, film about 120 μm
# From the text: (§1) In human, inflammation can arise through the activation of nuclear factor-kappaB (NF-κB), a pivotal transcription factor in chronic inflammatory diseases, inducing the expression of numerous inflammation related-genes such as those for tumor necrosis factor α (TNFα) and cytokines such as IL-1β, IL-10, and IL-6 or IL-8 (Medzhitov R., Nature, 2008, 454, 428-435). In the present invention, an inflammation-relevant human cell line, i.e. the monocytes THP-1 cells, are used to evaluate the potential of the coatings to reduce the inflammation. Their cytotoxicity towards are first evaluated using the resazurin reduction test (O'Brien J. et al., Eur. J. Biochem., 2000, 267, 5421-5426.) General anti-inflammatory properties are then determined using THP-1 cells transfected with a reporter plasmid expressing the secreted alkaline phosphatase (SEAP) gene under the control of an NF-κB-inducible promoter. TNFα are used as an inflammation inducer and the data are expressed as percentage inhibition of NF-κB activation. In addition, the effects of the most promising monomers is further evaluated on inflammation-related genes by real time qPCR using THP-1 cells differentiated into macrophages (Andre C. M. et al., J. Agric. Food. Chem, 2013, 61, 2773-2779) and IL-1β, IL-10, IL-6, and COX-2 as markers (Kaulmann A. et al., Mol. Nutr. Food Res., 2016, 60, 992-1005).
# THP-1 cells = assay: Pro-inflammatory activity of coated samples (FIG. 20); type: cell-based, human; settings: samples coated with film derived from the compound (monomers in combination with P-e; P-e alone)
# From the text: as §1
SMILES,inhibition of the inflammation (NF-κB activation; TNFα as inducer) [%],anti-inflammatory effect (NF-κB activation; in comparison with P-e or 13),pro-inflammatory properties (THP-1 cells)
CC=Cc1cc2c(c(OC)c1)OCN(Cc1ccco1)C2 [Monomer 12],~20,strong anti-inflammatory effect,only the sample coated with the film derived from compound 13 shows a trend
"c1ccc2c(c1)CN(CCN1COc3ccccc3C1)CO2 [P-e, reference compound]",–,–,only the sample coated with the film derived from compound 13 shows a trend
